Test results taken from publication PMC9500072, “Topical application of an irreversible small molecule inhibitor of lysyl oxidases ameliorates skin scarring and fibrosis” (Nature Communications, 2022).

What was measured:
lysyl oxidases [1] = test: Time-dependency of inhibition (pre-incubation times); type: biochemical; set-up: Fig. 2B activity: scale not given here
Description: PXS-4787 competes with a model substrate (putrescine) for the LOX binding site (Fig. 2d). The allylamine of PXS-4787 interacts with the co-factor of the enzyme and elicits mechanism-based inhibition (Fig. 2e). Through careful optimization, and in contrast to BAPN, PXS-4787 selectivity targets lysyl oxidases and is neither an inhibitor of, nor a substrate for, related oxidases (Fig. 2f, g and Supplementary Table S1). Furthermore, PXS-4787 was clean when profiled in a broad panel of macromolecular targets using enzyme and radioligand binding assays (LeadProfilingScreen, Eurofins CEREP Panlabs, 68 assays, test concentration 10 µM; Supplementary Data S1).
Data are expressed as mean ± SEM. Subsequent statistical analysis was performed with unpaired two-sided Student’s t tests. *p < 0.05, **p < 0.01, ***p < 0.001and ****p < 0.0001. Source data are provided as a Source Data file.
The measurement of the enzymatic activity of all lysyl oxidase family members was based on the detection of hydrogen peroxide with an Amplex-Red oxidation assay, as previously described; miniaturized in 384 well formats, with the appropriate combination of substrate and assay buffer for each individual enzyme. After a 30 min pre-incubation of the enzyme at 37 °C with the test compound (or with different incubation times for the time-dependency assay), one volume of reaction mixture containing 120 μM Amplex Red (AR) (Life Technologies), 1.5 U/mL horseradish peroxidase (HRP) (Sigma-Aldrich) and the specific substrate was added to each sample. The relative fluorescence units (RFU) were then measured every 2.5 min for 30 min at 37 °C, excitation 565 nm and emission 590, on a BMG Clariostar Microplate Reader. All the substrates were used at concentrations corresponding to their Km towards the corresponding enzyme, or with a range of different concentrations for the substrate competition experiments.

[2] = test system: primary dermal fibroblasts; test: Procollagen I FRET measurement, scar-in-a-jar; type: cell-based, human; conditions: highest dose (10 µM)
Adrenergic α1D = Adrenergic α1D (Homo sapiens, UniProt P25100); test: Eurofins panel 203400; type: binding
Bradykinin B1 = Bradykinin B1 (Homo sapiens, UniProt P46663); test: Eurofins panel 212510; type: binding
Calcium Channel N-Type = Calcium Channel N-Type (Rattus norvegicus, UniProt Q02294); test: Eurofins panel 216000; type: binding
Dopamine D3 = Dopamine D3 (Homo sapiens, UniProt P35462); test: Eurofins panel 219800; type: binding
Glutamate, NMDA, Glycine = test: Eurofins panel 232910; type: binding, rat; conditions: 10 µM
Interleukin IL-1 = Interleukin IL-1 (Mus musculus, UniProt P13504); test: Eurofins panel 243520; type: binding
[3] = target: Nicotinic Acetylcholine α1, Bungarotoxin (Homo sapiens, UniProt P02708+P07510+Q07001); test: Eurofins panel 258700; type: binding; conditions: read-out: % Inh.
hERG potassium channel = hERG potassium channel (Homo sapiens, UniProt Q12809); test: Eurofins panel 265900; type: binding
Prostanoid EP4 = Prostanoid EP4 (Homo sapiens, UniProt P35408); test: Eurofins panel 268420; type: binding
Phosphodiesterase PDE4D2 = Phosphodiesterase PDE4D2 (Homo sapiens, UniProt Q08499); test: Eurofins panel 154420; type: biochemical
[4] = target: Nicotinic Acetylcholine α1β2, Cytisine (Homo sapiens, UniProt P17787+P43681); test: Eurofins panel 299031; type: binding
Potassium Channel [KA] = test: Eurofins panel 265510; type: binding, rat; conditions: 30 µM
lysyl oxidases [5] = test system: lysyl oxidases; set-up: method as in ACTRN1262100322831; conditions: ref ACTRN1262100322831; cited from earlier work

Chain of Calcium Channel N-Type (Q02294 whole entry): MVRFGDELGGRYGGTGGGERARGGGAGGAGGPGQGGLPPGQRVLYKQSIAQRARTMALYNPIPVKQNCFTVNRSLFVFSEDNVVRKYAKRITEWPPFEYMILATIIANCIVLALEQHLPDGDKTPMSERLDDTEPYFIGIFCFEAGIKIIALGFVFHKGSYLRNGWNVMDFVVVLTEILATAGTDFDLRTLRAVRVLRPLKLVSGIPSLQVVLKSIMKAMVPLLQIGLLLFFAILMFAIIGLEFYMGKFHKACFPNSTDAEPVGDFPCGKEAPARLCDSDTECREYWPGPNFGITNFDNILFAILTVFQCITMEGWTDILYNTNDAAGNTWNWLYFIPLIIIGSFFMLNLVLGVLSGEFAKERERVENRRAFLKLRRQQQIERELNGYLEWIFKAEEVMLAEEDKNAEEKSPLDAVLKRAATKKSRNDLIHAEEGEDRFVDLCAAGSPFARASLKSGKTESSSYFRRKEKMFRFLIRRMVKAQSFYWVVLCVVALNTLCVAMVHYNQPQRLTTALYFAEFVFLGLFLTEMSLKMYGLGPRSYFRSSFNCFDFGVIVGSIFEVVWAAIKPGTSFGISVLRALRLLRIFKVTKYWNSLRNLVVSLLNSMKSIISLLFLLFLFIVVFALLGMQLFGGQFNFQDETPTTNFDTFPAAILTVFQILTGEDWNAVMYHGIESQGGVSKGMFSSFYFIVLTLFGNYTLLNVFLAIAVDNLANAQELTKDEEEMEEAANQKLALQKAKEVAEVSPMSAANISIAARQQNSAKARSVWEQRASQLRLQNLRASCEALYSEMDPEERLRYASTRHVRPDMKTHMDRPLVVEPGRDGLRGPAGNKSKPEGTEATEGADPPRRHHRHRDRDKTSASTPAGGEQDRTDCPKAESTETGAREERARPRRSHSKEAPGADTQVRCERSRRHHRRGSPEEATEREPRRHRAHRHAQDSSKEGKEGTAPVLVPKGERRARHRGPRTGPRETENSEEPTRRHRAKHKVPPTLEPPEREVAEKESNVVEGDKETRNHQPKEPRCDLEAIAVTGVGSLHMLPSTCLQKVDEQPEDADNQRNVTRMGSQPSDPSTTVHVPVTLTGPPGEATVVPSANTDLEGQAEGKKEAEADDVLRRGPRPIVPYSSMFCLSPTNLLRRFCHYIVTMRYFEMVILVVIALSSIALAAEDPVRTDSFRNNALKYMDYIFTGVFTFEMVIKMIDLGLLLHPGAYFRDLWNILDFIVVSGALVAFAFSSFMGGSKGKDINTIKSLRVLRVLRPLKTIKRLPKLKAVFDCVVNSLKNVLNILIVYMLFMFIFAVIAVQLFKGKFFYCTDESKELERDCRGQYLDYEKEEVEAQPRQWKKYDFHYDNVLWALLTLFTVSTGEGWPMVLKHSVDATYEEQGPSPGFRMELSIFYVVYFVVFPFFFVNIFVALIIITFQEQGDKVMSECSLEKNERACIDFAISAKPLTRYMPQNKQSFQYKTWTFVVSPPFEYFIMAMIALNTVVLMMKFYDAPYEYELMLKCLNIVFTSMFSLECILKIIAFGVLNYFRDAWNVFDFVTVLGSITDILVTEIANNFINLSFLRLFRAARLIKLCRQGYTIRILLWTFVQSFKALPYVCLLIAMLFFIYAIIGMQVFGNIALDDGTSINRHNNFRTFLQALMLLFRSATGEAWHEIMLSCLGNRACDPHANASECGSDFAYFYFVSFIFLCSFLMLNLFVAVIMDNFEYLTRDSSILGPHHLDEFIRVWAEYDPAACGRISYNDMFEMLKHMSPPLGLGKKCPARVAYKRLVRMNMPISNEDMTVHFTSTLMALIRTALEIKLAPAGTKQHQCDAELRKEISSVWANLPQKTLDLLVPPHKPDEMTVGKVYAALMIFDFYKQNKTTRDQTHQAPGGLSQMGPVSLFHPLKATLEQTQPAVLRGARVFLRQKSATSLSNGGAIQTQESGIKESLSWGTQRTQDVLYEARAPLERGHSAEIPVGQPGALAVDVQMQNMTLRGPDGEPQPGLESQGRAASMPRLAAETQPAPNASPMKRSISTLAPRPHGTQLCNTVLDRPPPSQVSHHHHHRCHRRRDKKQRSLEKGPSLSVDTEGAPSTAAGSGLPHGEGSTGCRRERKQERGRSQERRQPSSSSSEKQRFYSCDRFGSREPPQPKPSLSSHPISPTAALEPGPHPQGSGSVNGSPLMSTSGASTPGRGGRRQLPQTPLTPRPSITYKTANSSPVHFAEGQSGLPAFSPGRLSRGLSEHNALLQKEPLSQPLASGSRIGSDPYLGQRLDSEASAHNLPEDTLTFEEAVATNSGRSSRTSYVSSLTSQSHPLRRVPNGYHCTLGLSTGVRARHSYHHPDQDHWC
Chain of Prostanoid EP4 (P35408 whole entry): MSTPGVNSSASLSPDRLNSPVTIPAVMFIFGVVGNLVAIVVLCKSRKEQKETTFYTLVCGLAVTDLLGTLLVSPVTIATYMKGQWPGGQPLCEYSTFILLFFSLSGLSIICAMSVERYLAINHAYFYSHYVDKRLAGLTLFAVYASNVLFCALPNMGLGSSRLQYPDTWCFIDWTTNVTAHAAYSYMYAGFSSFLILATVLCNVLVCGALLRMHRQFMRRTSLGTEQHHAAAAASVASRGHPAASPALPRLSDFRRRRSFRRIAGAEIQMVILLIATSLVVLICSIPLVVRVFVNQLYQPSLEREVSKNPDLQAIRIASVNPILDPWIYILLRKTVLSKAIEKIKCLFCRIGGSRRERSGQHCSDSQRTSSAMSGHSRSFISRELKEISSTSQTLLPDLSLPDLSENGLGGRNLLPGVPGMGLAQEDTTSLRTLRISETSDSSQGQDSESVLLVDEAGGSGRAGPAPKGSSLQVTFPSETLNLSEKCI
Chain of Bradykinin B1 (P46663 whole entry): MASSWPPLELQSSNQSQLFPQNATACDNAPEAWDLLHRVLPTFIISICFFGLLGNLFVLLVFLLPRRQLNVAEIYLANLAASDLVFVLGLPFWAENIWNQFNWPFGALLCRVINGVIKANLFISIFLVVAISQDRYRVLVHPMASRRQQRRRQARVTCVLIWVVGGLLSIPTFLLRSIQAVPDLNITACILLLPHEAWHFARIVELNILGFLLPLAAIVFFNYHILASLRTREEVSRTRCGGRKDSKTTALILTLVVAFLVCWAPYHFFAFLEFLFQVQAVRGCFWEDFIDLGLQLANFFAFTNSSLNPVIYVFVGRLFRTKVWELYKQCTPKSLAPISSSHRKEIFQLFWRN
Chain of Phosphodiesterase PDE4D2 (Q08499 303-809 limits assumed): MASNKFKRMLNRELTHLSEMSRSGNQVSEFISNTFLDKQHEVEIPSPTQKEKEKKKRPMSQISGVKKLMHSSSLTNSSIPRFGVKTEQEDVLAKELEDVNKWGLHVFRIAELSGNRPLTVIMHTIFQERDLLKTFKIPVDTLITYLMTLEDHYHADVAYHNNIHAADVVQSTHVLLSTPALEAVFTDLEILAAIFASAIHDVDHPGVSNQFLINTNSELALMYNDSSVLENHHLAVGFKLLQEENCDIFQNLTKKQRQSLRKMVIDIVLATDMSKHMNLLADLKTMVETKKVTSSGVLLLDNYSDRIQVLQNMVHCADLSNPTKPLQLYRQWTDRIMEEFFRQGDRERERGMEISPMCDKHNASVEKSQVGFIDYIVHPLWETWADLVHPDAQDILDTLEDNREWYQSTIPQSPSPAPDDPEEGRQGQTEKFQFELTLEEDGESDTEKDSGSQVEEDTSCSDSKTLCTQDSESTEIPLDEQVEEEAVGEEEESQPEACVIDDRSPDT
Chain of Interleukin IL-1 (P13504 20-576): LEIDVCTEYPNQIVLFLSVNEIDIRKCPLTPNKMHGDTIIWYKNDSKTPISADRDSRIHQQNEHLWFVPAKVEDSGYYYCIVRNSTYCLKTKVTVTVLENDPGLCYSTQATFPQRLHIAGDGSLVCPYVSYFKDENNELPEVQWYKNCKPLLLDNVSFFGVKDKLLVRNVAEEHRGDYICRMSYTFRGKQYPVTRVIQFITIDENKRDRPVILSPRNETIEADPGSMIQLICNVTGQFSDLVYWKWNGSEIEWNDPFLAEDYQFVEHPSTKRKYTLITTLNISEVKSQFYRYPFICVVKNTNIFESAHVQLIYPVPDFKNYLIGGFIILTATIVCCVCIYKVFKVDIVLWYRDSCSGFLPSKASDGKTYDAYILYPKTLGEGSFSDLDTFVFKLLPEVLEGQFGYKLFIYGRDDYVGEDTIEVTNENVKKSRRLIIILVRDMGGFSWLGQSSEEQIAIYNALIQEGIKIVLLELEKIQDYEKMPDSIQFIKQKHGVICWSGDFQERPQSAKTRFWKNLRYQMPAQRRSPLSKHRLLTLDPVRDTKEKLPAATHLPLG
Chain of Adrenergic α1D (P25100 whole entry): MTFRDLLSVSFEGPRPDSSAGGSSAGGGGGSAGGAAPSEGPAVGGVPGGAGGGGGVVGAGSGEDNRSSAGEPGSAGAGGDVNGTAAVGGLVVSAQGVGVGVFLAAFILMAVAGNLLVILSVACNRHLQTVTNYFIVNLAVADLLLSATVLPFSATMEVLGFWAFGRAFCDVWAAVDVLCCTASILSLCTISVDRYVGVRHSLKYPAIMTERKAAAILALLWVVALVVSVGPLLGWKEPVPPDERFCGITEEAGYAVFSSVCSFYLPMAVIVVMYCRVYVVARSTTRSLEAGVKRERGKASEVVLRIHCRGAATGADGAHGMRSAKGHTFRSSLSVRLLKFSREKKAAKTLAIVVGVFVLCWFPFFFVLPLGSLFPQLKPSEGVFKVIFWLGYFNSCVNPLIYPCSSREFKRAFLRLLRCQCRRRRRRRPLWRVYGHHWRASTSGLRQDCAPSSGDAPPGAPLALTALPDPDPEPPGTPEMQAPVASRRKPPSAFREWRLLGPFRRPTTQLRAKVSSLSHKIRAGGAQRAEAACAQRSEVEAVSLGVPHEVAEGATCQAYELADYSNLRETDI

SMILES: NC/C=C(\F)CS(=O)(=O)c1ccccc1 [PXS-4787]
- potency versus pre-incubation time (lysyl oxidases [1]): increased potency upon longer pre-incubation times
- Fig. 2B activity (lysyl oxidases [1]; 1.69333e-10, pre-incubation 0 min): 106.286
- Fig. 2B activity (lysyl oxidases [1]; 1.69333e-10, pre-incubation 15 min): 104.086
- Fig. 2B activity (lysyl oxidases [1]; 1.69333e-10, pre-incubation 30 min): 108.652
- Fig. 2B activity (lysyl oxidases [1]; 1.69333e-10, pre-incubation 1 h): 105.245
- Fig. 2B activity (lysyl oxidases [1]; 1.69333e-10, pre-incubation 2 h): 105.759
- Fig. 2B activity (lysyl oxidases [1]; 1.69333e-10, pre-incubation 4 h): 111.637
- Fig. 2B activity (lysyl oxidases [1]; 5.08e-10, pre-incubation 0 min): 102.267
- Fig. 2B activity (lysyl oxidases [1]; 5.08e-10, pre-incubation 15 min): 101.228
- Fig. 2B activity (lysyl oxidases [1]; 5.08e-10, pre-incubation 30 min): 106.873
- Fig. 2B activity (lysyl oxidases [1]; 5.08e-10, pre-incubation 1 h): 98.3282
- Fig. 2B activity (lysyl oxidases [1]; 5.08e-10, pre-incubation 2 h): 107.568
- Fig. 2B activity (lysyl oxidases [1]; 5.08e-10, pre-incubation 4 h): 110.707
- Fig. 2B activity (lysyl oxidases [1]; 1.52e-9, pre-incubation 0 min): 101.124
- Fig. 2B activity (lysyl oxidases [1]; 1.52e-9, pre-incubation 15 min): 102.218
- Fig. 2B activity (lysyl oxidases [1]; 1.52e-9, pre-incubation 30 min): 107.03
- Fig. 2B activity (lysyl oxidases [1]; 1.52e-9, pre-incubation 1 h): 103.614
- Fig. 2B activity (lysyl oxidases [1]; 1.52e-9, pre-incubation 2 h): 102.685
- Fig. 2B activity (lysyl oxidases [1]; 1.52e-9, pre-incubation 4 h): 110.751
- Fig. 2B activity (lysyl oxidases [1]; 4.57e-9, pre-incubation 0 min): 99.5583
- Fig. 2B activity (lysyl oxidases [1]; 4.57e-9, pre-incubation 15 min): 100.144
- Fig. 2B activity (lysyl oxidases [1]; 4.57e-9, pre-incubation 30 min): 103.756
- Fig. 2B activity (lysyl oxidases [1]; 4.57e-9, pre-incubation 1 h): 101.013
- Fig. 2B activity (lysyl oxidases [1]; 4.57e-9, pre-incubation 2 h): 107.904
- Fig. 2B activity (lysyl oxidases [1]; 4.57e-9, pre-incubation 4 h): 105.302
- Fig. 2B activity (lysyl oxidases [1]; 1.37e-8, pre-incubation 0 min): 96.8423
- Fig. 2B activity (lysyl oxidases [1]; 1.37e-8, pre-incubation 15 min): 98.2429
- Fig. 2B activity (lysyl oxidases [1]; 1.37e-8, pre-incubation 30 min): 101.141
- Fig. 2B activity (lysyl oxidases [1]; 1.37e-8, pre-incubation 1 h): 101.758
- Fig. 2B activity (lysyl oxidases [1]; 1.37e-8, pre-incubation 2 h): 104.569
- Fig. 2B activity (lysyl oxidases [1]; 1.37e-8, pre-incubation 4 h): 105.34
- Fig. 2B activity (lysyl oxidases [1]; 4.12e-8, pre-incubation 0 min): 98.5025
- Fig. 2B activity (lysyl oxidases [1]; 4.12e-8, pre-incubation 15 min): 98.7481
- Fig. 2B activity (lysyl oxidases [1]; 4.12e-8, pre-incubation 30 min): 99.9026
- Fig. 2B activity (lysyl oxidases [1]; 4.12e-8, pre-incubation 1 h): 99.6216
- Fig. 2B activity (lysyl oxidases [1]; 4.12e-8, pre-incubation 2 h): 100.024
- Fig. 2B activity (lysyl oxidases [1]; 4.12e-8, pre-incubation 4 h): 98.7222
- Fig. 2B activity (lysyl oxidases [1]; 1.23e-7, pre-incubation 0 min): 98.6918
- Fig. 2B activity (lysyl oxidases [1]; 1.23e-7, pre-incubation 15 min): 98.1432
- Fig. 2B activity (lysyl oxidases [1]; 1.23e-7, pre-incubation 30 min): 101.367
- Fig. 2B activity (lysyl oxidases [1]; 1.23e-7, pre-incubation 1 h): 90.8141
- Fig. 2B activity (lysyl oxidases [1]; 1.23e-7, pre-incubation 2 h): 90.2595
- Fig. 2B activity (lysyl oxidases [1]; 1.23e-7, pre-incubation 4 h): 86.2099
- Fig. 2B activity (lysyl oxidases [1]; 3.7e-7, pre-incubation 0 min): 96.5147
- Fig. 2B activity (lysyl oxidases [1]; 3.7e-7, pre-incubation 15 min): 94.9326
- Fig. 2B activity (lysyl oxidases [1]; 3.7e-7, pre-incubation 30 min): 97.5329
- Fig. 2B activity (lysyl oxidases [1]; 3.7e-7, pre-incubation 1 h): 85.2822
- Fig. 2B activity (lysyl oxidases [1]; 3.7e-7, pre-incubation 2 h): 74.251
- Fig. 2B activity (lysyl oxidases [1]; 3.7e-7, pre-incubation 4 h): 62.6684
- Fig. 2B activity (lysyl oxidases [1]; 1.11e-6, pre-incubation 0 min): 94.3157
- Fig. 2B activity (lysyl oxidases [1]; 1.11e-6, pre-incubation 15 min): 89.9671
- Fig. 2B activity (lysyl oxidases [1]; 1.11e-6, pre-incubation 30 min): 87.3566
- Fig. 2B activity (lysyl oxidases [1]; 1.11e-6, pre-incubation 1 h): 64.8977
- Fig. 2B activity (lysyl oxidases [1]; 1.11e-6, pre-incubation 2 h): 45.9612
- Fig. 2B activity (lysyl oxidases [1]; 1.11e-6, pre-incubation 4 h): 15.2083
- Fig. 2B activity (lysyl oxidases [1]; 3.33e-6, pre-incubation 0 min): 92.0439
- Fig. 2B activity (lysyl oxidases [1]; 3.33e-6, pre-incubation 15 min): 82.8346
- Fig. 2B activity (lysyl oxidases [1]; 3.33e-6, pre-incubation 30 min): 63.1887
- Fig. 2B activity (lysyl oxidases [1]; 3.33e-6, pre-incubation 1 h): 32.0154
- Fig. 2B activity (lysyl oxidases [1]; 3.33e-6, pre-incubation 2 h): 13.0848
- Fig. 2B activity (lysyl oxidases [1]; 3.33e-6, pre-incubation 4 h): 1.062
- inhibition of the least sensitive lysyl oxidase (lysyl oxidases [1]; 10 µM, after 2 h): complete inhibition
- Fig. 2B activity (lysyl oxidases [1]; 1e-5, pre-incubation 0 min): 71.7944
- Fig. 2B activity (lysyl oxidases [1]; 1e-5, pre-incubation 15 min): 51.1738
- Fig. 2B activity (lysyl oxidases [1]; 1e-5, pre-incubation 30 min): 24.7148
- Fig. 2B activity (lysyl oxidases [1]; 1e-5, pre-incubation 1 h): 3.779
- Fig. 2B activity (lysyl oxidases [1]; 1e-5, pre-incubation 2 h): 2.199
- Fig. 2B activity (lysyl oxidases [1]; 1e-5, pre-incubation 4 h): 0.1194
- Fig. 2B activity (lysyl oxidases [1]; 3e-5, pre-incubation 0 min): 46.8993
- Fig. 2B activity (lysyl oxidases [1]; 3e-5, pre-incubation 15 min): 20.2974
- Fig. 2B activity (lysyl oxidases [1]; 3e-5, pre-incubation 30 min): 5.217
- Fig. 2B activity (lysyl oxidases [1]; 3e-5, pre-incubation 1 h): 1.087
- Fig. 2B activity (lysyl oxidases [1]; 3e-5, pre-incubation 2 h): 2.027
- Fig. 2B activity (lysyl oxidases [1]; 3e-5, pre-incubation 4 h): -1.502
- collagen I production (soluble procollagen I) [2]: significant and sustained reduction
- inhibition at 10 µM (Adrenergic α1D): -1%
- inhibition at 10 µM (Bradykinin B1): 6%
- inhibition at 10 µM (Calcium Channel N-Type): 0%
- inhibition at 10 µM (Dopamine D3): 0%
- % Inh. (Glutamate, NMDA, Glycine): 5%
- inhibition at 10 µM (Interleukin IL-1): 7%
- inhibition at 10 µM [3]: -3%
- inhibition at 10 µM (hERG potassium channel): 9%
- inhibition at 10 µM (Prostanoid EP4): -2%

SMILES: NC/C=C(\F)C(F)(F)S(=O)(=O)c1ccccc1 [PXS-6302]
- inhibition at 30 µM (Phosphodiesterase PDE4D2): 3%
- inhibition at 30 µM [4]: -2%
- % Inh. (Potassium Channel [KA]): 2%
- target engagement and inhibition in phase I trial (lysyl oxidases [5]): strong target engagement and long-lasting inhibition
